In brackets after ≈: the same amount, converted by molar mass.
Assays:
[1] = test system: NAD(P)H oxidase; experiment: NAD(P)H oxidase ROS/H2O2 production control test without mitochondria; type: biochemical; settings: no mitochondria; NAD(P)H oxidase + NADH; results not shown
[2] = test system: isolated pancreatic islets from mice; experiment: Glucose-stimulated insulin secretion (GSIS) in isolated pancreatic islets; type: cell-based, mouse; settings: AOL 10 and 20 μM, 1 hour
Procedure: Pancreatic islets were isolated using the collagenase digestion method. Briefly, pancreas was inflated with Hanks solution containing 0.33 mg/mL of collagenase (Sigma-Aldrich), 5.6 mM glucose and 1% bovine serum albumin, pH 7.35, removed and kept at 37° C. for 6-9 minutes. After tissue digestion and exocrine removal by three consecutive washes, the islets were manually collected, under a binocular magnifier. Islets were left recovering from digestion by culturing for 20-24 hours in RPMI-1640 medium containing 11 mM glucose (Invitrogen, Calif., USA) and supplemented with 2 mM glutamine, 200 IU/mL penicillin, 200 μg/mL streptomycin and 8% fetal bovine serum stripped with charcoal-dextran (Invitrogen).
For each static GSIS experiment, islets from two mice were first incubated for 2 hours at 37° C. in 3 mL Krebs-bicarbonate buffer solution (in mM): […], 2 HEPES and 3 glucose, equilibrated with a mixture of 95% O2:5% CO2, pH 7.4. […] Insulin secretion in each well was calculated as ng of insulin per islet and per hour of incubation, and then expressed as percentage of insulin secretion in 11 mM glucose vehicle group, which was considered 100%.

[3] = test system: isolated perfused rat heart; experiment: Global ischaemia/reperfusion of isolated perfused (Langendorff) rat heart; settings: 10 μM AOL pretreatment, 30 min ischaemia
Procedure: The consequences of 30 minutes' global ischaemia followed by 120 minutes' reperfusion (FIG. 11) on contractility and tissue viability were studied on isolated perfused rat heart pretreated or not (control vehicle) with 10 μM AOL.
All procedures conformed to the UK Animals (Scientific Procedures) Act 1986 and the Guide for the Care and Use of Laboratory Animals published by the National Institutes of Health (NIH Publication No. 85-23. revised 1996). Male Wistar rats (250-300 g) were anesthetized by 3% isoflurane, heparinized and euthanized by a lethal IP injection of pentobarbital (130 mg/kg). Hearts (˜0.95 g of fresh weight) were rapidly harvested and placed into ice cold Krebs-Henseleit buffer containing (in mmol/L): NaCl 118, NaHCO3 25, KCl 4.8, KH2PO4 1.2, MgSO4 1.2, glucose 11 and CaCl2 1.8; gassed with 95% O2/5% CO2 at 37° C. (pH 7.4). Langendorff heart perfusions were performed (Garlid, K. D. et al., 2006. Am. J. Physiol. Heart Circ. Physiol. 291(1):H152-60) and contractility was assessed by continuous measurement of the rate pressure product (RPP) thanks to a balloon placed in the left ventricle and connected to a pressure transducer. Hearts were perfused in a constant flow mode (12 mL/min). […]

[4] = Solubility limit in Kolliphor; type: physicochemical

## COc1ccc(-c2cc(=S)ss2)cc1 [AOL, 5-(4-methoxyphenyl)-3H-1,2-dithiole-3-thione]
[1]
  ROS/H2O2 production by NAD(P)H oxidase: does not inhibit
[2]
  GSIS increase as compared to the 11 mM glucose vehicle group: 65-75%
[3]; 120 min reperfusion
  infarcted tissue rescued (TTC staining): about 50%
[3]; after 2 hours of reperfusion
  heart contractility (rate pressure product, RPP) versus control hearts: about three times higher
[4]
  solubility limit: 2800 µM (≈ 673 µg/mL)
